One data set concerns Gonococci. In words: MIC against Gonococci in vitro. In kind it is cell-based. The settings on record: Gonococci (average 17 strains); read-out: Minimum Inhibitory Concentration (MIC). The text has this: (§1) The compounds of the present invention were subjected to standard tests in order to determine the minimum inhibitory concentration in μg/ml needed to inhibit a range of bacterial microorganisms in-vitro.

The subject of another data set is St. faecalis CN478. In words: MIC against St. faecalis CN478 in vitro. In kind it is cell-based. Conditions: Enterococcus faecalis, read-out: Minimum Inhibitory Concentration (MIC).
Description: as §1

A further data set concerns St. agalactiae CN1143. In words: MIC against St. agalactiae CN1143 in vitro. The settings on record: Streptococcus agalactiae, read-out: Minimum Inhibitory Concentration (MIC). In kind it is cell-based.
Description: as §1

Data set [1] concerns Vibrio cholerae ATCC14035. In words: MIC against Vibrio cholerae ATCC14035 in vitro. Conditions: ATCC14035, read-out: Minimum Inhibitory Concentration (MIC). The data set is classed as cell-based.
Description: as §1

For a further data set, the system named is Meningococci. In words: MIC against Meningococci in vitro. The data set is classed as cell-based. The settings on record: Meningococci (average 5 strains); read-out: Minimum Inhibitory Concentration (MIC).
Description: as §1

The next data set concerns Esch. coli CN314. The data set can be described thus: MIC against Esch. coli CN314 in vitro. The data set is classed as cell-based. The settings on record: Escherichia coli, read-out: Minimum Inhibitory Concentration (MIC).
Description: as §1

For the next data set, the system named is B. fragilis. The data set can be described thus: MIC against B. fragilis in vitro. The data set is classed as cell-based. The settings on record: Bacteroides fragilis; B. fragilis (average 3-10 strains); read-out: Minimum Inhibitory Concentration (MIC).
Description: as §1

For a further data set, the system named is Pr. mirabilis S2409. The data set can be described thus: MIC against Pr. mirabilis S2409 in vitro. In kind it is cell-based. The settings on record: Proteus mirabilis, read-out: Minimum Inhibitory Concentration (MIC).
Description: as §1

The subject of a further data set is Staph. aureus CN491. In words: MIC against Staph. aureus CN491 in vitro. The data set is classed as cell-based. Conditions: Staphylococcus aureus, read-out: Minimum Inhibitory Concentration (MIC).
Description: as §1

Data set [2] deals with Salmonella dublin. The settings on record: even at 40 mg/kg/day; cited from earlier work.
Another data set in a line: Acute toxicity in mouse. Conditions: in vivo, ip; i.p. mouse.
Data set [3] concerns Salmonella dublin. In words: Experimental salmonellosis in calves. The settings on record: for Mortality: 5 days from two days after infection, deaths/calves. The data set is classed as in vivo.
The test system of data set [4] is four individual gram negative microorganisms and one isolate of S. aureus. The data set can be described thus: Checkerboard potentiation study with SMX, overall. In kind it is cell-based. Conditions: words. On the procedure:
2. Compound Preparation. Compound 1, trimethoprim (TMP) and SMX were each treated with N,N-dimethylformamide for 30 minutes. Dilutions were prepared using sterile distilled water.
3. Testing procedure. Two checkerboard patterns were set-up, namely: 1. SMX and TMP-lactate and 2. SMX and compound 1-lactate. Thirteen, two-fold dilutions of compound 1-lactate were prepared with final concentrations ranging from 6.2 ug/ml to 0.0016 ug/ml. Twenty two, two-fold dilutions of SMX were prepared with final plate concentrations ranging from 31 ug/ml to 0.000016 ug/ml. An analogous checkerboard scheme was set-up for the combination TMP and SMX. Microorganisms were grown on Wellcotest Sensitivity Test Agar containing various concentrations and permutations of compounds.
From the MIC's, a fractional inhibitory concentration (FIC) was calculated. This involves determining a fraction by dividing the MIC of an agent in combination over the MIC of the agent alone (1). If it is less than one, the interaction is synergistic, and if the sum is greater than one, the combination is antagonistic.

A further data set is described as follows: Acute toxicity in rat. Conditions: in vivo, po; p.o. rat.
A further data set has as its system aerobic bacteria. The settings on record: general statement on trimethoprim; cited from earlier work.
The test system of a further data set is Staph. aureus. The data set can be described thus: MIC vs Staph. aureus (Table 2). The data set is classed as cell-based. Conditions: Staphylococcus aureus, strain not given.
Description: as §1

The test system of a further data set is anaerobic bacteria. Conditions: general statement on trimethoprim; cited from earlier work.
Setting [5] is: 1 mg/kg daily plus SDZ 20 mg/kg.

As a reminder, the LD50 is the dose at which mortality reaches 50%. Read a low LD50 as greater toxicity.

≈ marks a conversion by molar mass, not a printed value. Entries after “also recorded” stand apart in the source; their conditions may differ.

`Cc1cc(Cc2cnc(N)nc2N)c2cccnc2c1N(C)C.Cl.Cl` [Compound 9, 2,4-Diamino-5-(8-dimethylamino-7-methyl-5-quinolylmethyl)pyrimidine dihydrochloride]: the MIC in the data set with Gonococci was above 25 µg/mL; with St. faecalis CN478, 0.05 µg/mL; with St. agalactiae CN1143, 0.5 µg/mL; in data set [1] it was 0.5 µg/mL; with Meningococci, above 25 µg/mL; in the data set with Esch. coli CN314, 0.1 µg/mL. The MIC in the data set on B. fragilis was found to be 7.8 µg/mL; in the data set on Pr. mirabilis S2409, 5 µg/mL; with Staph. aureus CN491 it was 0.5 µg/mL.
For the molecule `COc1cc(Cc2cnc(N)nc2N)c2ccncc2c1N.Cl.Cl` [Compound 25, 2,4-Diamino-5-(8-amino-7-methoxy-5-isoquinolylmethyl)pyrimidine dihydrochloride], the MIC was 8.1 µg/mL in the data set with Gonococci; 0.05 µg/mL in the data set on St. faecalis CN478; 0.05 µg/mL in the data set with St. agalactiae CN1143; 0.05 µg/mL in data set [1]; 3.1 µg/mL with Meningococci; 0.05 µg/mL in the data set with Esch. coli CN314. The results for the MIC with B. fragilis, in the data set on Pr. mirabilis S2409 and with Staph. aureus CN491 were 2.6 µg/mL, 5 µg/mL and 0.05 µg/mL, respectively.
On to `Nc1ccc(S(=O)(=O)Nc2ncccn2)cc1` [SDZ], for which, in the data set with Salmonella dublin [2], the “effect on mortality, SDZ alone” value is “no effect on mortality in this disease model”.
Turning to `COc1cc(Cc2cnc(N)nc2N)c2cccnc2c1N.Cl.Cl` [Compound 8, 2,4-Diamino-5-(8-amino-7-methoxy-5-quinolylmethyl)-pyrimidine dihydrochloride], the MIC in the data set on Gonococci came to 11.1 µg/mL; with St. faecalis CN478, 0.1 µg/mL; in the data set with St. agalactiae CN1143, 0.1 µg/mL; in data set [1], 0.05 µg/mL; in the data set with Meningococci, 3.7 µg/mL; in the data set with Esch. coli CN314, 0.1 µg/mL. The MIC with B. fragilis is 5.2 µg/mL; in the data set on Pr. mirabilis S2409, 1 µg/mL; in the data set with Staph. aureus CN491 it was 0.1 µg/mL. The LD50 in the data set “Acute toxicity in mouse” is 500 mg/kg.
On to `COc1cc(Cc2cnc(N)nc2N)c2c(c1OC)OCC=C2` [Compound 1, 2,4-Diamino-5-(7,8-dimethoxy-2 --H--1-benzopyran-5-ylmethyl)-pyrimidine], for which the MIC was found to be 10 µg/mL (≈ 31.8 µM) in the data set with Gonococci; 0.05 µg/mL (≈ 0.159 µM) in the data set on St. faecalis CN478; 0.05 µg/mL (≈ 0.159 µM) with St. agalactiae CN1143; 0.05 µg/mL (≈ 0.159 µM) in data set [1]; 3.1 µg/mL (≈ 9.86 µM) in the data set on Meningococci; 0.05 µg/mL (≈ 0.159 µM) in the data set with Esch. coli CN314. Moreover, the MIC in the data set with B. fragilis was found to be 1.08 µg/mL (≈ 3.44 µM); with Pr. mirabilis S2409, 5 µg/mL (≈ 15.9 µM); in the data set on Staph. aureus CN491 it was 0.05 µg/mL (≈ 0.159 µM). Also, the figures for the Mortality in the data set on Salmonella dublin [3] (0.5 mg/kg daily plus SDZ 20 mg/kg) and in the data set with Salmonella dublin [3] (setting [5]) were 3/7 and 0/6, respectively. Moreover, in the data set with Salmonella dublin [3] (0.5 mg/kg plus SDZ 20 mg/kg, in comparison with TMP 1 mg/kg), the “reduction of mortality, in words” value is “produced a reduction of mortality comparable with that in group 1 (TMP, 1 mg/kg)”. The “efficacy relative to TMP” value in the data set with Salmonella dublin [3] (1 mg/kg each, plus SDZ 20 mg/kg) was “clearly superior to TMP at 1 mg/kg”. Further, the “recovery of the survivors” value with Salmonella dublin [3] (1 mg/kg plus SDZ 20 mg/kg, in comparison with TMP 1 mg/kg (group 1)) is given as “much more rapid recovery of the survivors in group 2”. The “effectiveness relative to TMP” value in the data set on Salmonella dublin [3] (with SDZ 20 mg/kg, conclusion from all groups) is listed as “approximately twice as effective as TMP in this disease syndrome”. In data set [4], the “in vitro potentiation with SMX” value is “SMX appears to potentiate compound 1 as well as it does TMP; also recorded: in vitro potentation can be demonstrated between SMX and compound 1 in the case of four individual gram negative microorganisms and one isolate of S. aureus”. Besides, the LD50 in the data set “Acute toxicity in mouse” was 610 mg/kg; in “Acute toxicity in rat”, above 1000 mg/kg.
`COc1cc(Cc2cnc(N)nc2N)c2c(c1OC)OC(C)C=C2` (stereo not drawn) [Compound 4, 2,4-Diamino-5-(7,8-dimethoxy-2-methyl-2 --H--1-benzopyran-5-ylmethyl) pyrimidine lactate]: the MIC with Gonococci turned out to be 4.6 µg/mL; in the data set on St. faecalis CN478, 0.01 µg/mL; in the data set on St. agalactiae CN1143, 0.05 µg/mL; in [1], 0.05 µg/mL; in the data set on Meningococci it was 2.8 µg/mL; with Esch. coli CN314, 0.1 µg/mL. The MIC with B. fragilis was found to be 0.48 µg/mL; in the data set on Pr. mirabilis S2409 it was 5 µg/mL; in the data set with Staph. aureus CN491, 0.05 µg/mL.
As to `COc1cc(Cc2cnc(N)nc2N)c2cccnc2c1SC` [Compound 31, 2,4-Diamino-5-(7-methoxy-8-methylthio-5-quinolylmethyl)pyrimidine], the MIC was found to be 34.4 µg/mL (≈ 105 µM) in the data set with Gonococci; 0.05 µg/mL (≈ 0.153 µM) in the data set on St. faecalis CN478; 0.5 µg/mL (≈ 1.53 µM) with St. agalactiae CN1143; 0.05 µg/mL (≈ 0.153 µM) in data set [1]; 14.4 µg/mL (≈ 44 µM) in the data set on Meningococci; 0.1 µg/mL (≈ 0.305 µM) with Esch. coli CN314. Moreover, the MIC with B. fragilis is 3.1 µg/mL (≈ 9.47 µM); in the data set on Pr. mirabilis S2409, 5 µg/mL (≈ 15.3 µM); in the data set on Staph. aureus CN491 it was 0.05 µg/mL (≈ 0.153 µM).
On to `COc1cc(Cc2cnc(N)nc2N)cc(OC)c1OC` [TMP, 2,4-diamino-5-(3,4,5-trimethoxybenzyl)pyrimidine, reference compound], for which the MIC in the data set with Gonococci was 37.1 µg/mL (≈ 128 µM); in the data set with St. faecalis CN478, 0.1 µg/mL (≈ 0.344 µM); in the data set with St. agalactiae CN1143 it was 0.5 µg/mL (≈ 1.72 µM); in [1] it was 0.5 µg/mL (≈ 1.72 µM); in the data set on Meningococci, 18 µg/mL (≈ 62 µM); with Esch. coli CN314 it was 0.05 µg/mL (≈ 0.172 µM). For the same molecule, the MIC with B. fragilis amounted to 4 µg/mL (≈ 13.8 µM); in the data set on Staph. aureus, 0.5 µg/mL (≈ 1.72 µM); in the data set on Pr. mirabilis S2409, 5 µg/mL (≈ 17.2 µM); in the data set with Staph. aureus CN491, 0.5 µg/mL (≈ 1.72 µM). Moreover, in the data set on Salmonella dublin [3] (setting [5]), the Mortality is given as 2/7. The “level of activity against aerobic bacteria” value in the data set on aerobic bacteria is “excellent level of activity against most aerobic bacteria”. Further, the “level of activity against anaerobic bacteria” value in the data set with anaerobic bacteria is reported as “activity against anaerobic bacteria is less impressive”.

These data come from patent US4587342A, “2,4-diamino-(substituted-benzopyran(quinolyl,isoquinoly)methyl)pyrimidine s useful as antibacterials” (priority 1980, dated 1986).
